From ChEMBL document CHEMBL5465560, “Selectivity Literature for EUbOPEN Chemogenomic Library” (2024)

What was measured:
[1] = biological target: T1, Protein kinase C epsilon type (Homo sapiens) (UniProt Q02156); assay: Selectivity interaction (KinomeScan (DiscoverX)) EUB0001079a PRKCE; details: at 1 µM
T1 sequence (whole entry): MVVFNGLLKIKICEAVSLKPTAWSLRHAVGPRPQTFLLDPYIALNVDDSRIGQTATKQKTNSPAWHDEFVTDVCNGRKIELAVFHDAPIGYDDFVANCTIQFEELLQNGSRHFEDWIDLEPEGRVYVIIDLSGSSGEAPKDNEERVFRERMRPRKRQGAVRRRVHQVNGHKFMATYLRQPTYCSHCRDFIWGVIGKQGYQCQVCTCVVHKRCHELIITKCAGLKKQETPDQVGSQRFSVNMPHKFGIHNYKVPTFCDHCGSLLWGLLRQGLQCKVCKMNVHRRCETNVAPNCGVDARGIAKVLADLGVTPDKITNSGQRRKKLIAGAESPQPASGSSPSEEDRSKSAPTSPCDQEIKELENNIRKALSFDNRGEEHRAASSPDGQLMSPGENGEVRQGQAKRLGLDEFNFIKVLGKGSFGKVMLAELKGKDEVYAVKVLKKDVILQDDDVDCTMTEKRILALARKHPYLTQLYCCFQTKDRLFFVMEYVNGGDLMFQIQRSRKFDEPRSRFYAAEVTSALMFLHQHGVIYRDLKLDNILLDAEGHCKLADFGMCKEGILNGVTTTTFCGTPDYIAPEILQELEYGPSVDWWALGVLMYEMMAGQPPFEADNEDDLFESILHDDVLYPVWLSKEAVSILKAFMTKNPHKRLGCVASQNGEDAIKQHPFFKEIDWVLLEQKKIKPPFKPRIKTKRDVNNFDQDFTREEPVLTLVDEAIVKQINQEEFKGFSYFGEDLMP

[2] = biological target: Macrophage colony-stimulating factor 1 receptor (Homo sapiens) (UniProt P07333); assay: Selectivity interaction (Millipore kinase profiler) EUB0000124b CSF1R; details: at 10 µM
Sequence of Macrophage colony-stimulating factor 1 receptor (Homo sapiens) (P07333 whole entry): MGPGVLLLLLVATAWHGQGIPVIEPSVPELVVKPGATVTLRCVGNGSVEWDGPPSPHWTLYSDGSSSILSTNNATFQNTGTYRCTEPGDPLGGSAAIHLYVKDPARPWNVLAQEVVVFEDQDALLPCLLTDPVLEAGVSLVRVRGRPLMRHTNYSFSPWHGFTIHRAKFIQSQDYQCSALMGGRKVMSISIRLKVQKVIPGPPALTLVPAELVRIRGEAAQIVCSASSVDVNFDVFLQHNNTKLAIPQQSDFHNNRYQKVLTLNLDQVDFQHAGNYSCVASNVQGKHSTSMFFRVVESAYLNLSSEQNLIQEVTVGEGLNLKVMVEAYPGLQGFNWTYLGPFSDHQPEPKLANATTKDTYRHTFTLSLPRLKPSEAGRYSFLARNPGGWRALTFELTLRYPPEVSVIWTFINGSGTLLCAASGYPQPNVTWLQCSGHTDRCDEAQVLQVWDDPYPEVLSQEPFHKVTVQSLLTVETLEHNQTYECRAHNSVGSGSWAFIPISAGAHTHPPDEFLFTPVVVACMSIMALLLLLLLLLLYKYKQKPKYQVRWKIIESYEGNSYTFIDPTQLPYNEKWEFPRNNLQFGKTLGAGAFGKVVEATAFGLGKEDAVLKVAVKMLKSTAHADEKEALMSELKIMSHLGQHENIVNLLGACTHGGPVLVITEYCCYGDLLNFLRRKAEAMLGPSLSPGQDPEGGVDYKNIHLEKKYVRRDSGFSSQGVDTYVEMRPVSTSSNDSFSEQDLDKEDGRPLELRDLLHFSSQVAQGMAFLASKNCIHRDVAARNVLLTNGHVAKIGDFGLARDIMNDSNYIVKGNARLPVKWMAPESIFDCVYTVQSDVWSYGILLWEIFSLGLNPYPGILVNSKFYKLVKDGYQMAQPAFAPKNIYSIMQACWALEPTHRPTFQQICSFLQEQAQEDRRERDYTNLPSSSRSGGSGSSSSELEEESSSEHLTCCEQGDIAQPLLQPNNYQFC

[3] = biological target: Ribosomal protein S6 kinase beta-1 (Homo sapiens, UniProt P23443); assay: Selectivity interaction (SelectScreen profiling (Invitrogen)) EUB0000607a RPS6KB1; details: at 2 µM
Sequence of Ribosomal protein S6 kinase beta-1 (P23443 whole entry, looked up): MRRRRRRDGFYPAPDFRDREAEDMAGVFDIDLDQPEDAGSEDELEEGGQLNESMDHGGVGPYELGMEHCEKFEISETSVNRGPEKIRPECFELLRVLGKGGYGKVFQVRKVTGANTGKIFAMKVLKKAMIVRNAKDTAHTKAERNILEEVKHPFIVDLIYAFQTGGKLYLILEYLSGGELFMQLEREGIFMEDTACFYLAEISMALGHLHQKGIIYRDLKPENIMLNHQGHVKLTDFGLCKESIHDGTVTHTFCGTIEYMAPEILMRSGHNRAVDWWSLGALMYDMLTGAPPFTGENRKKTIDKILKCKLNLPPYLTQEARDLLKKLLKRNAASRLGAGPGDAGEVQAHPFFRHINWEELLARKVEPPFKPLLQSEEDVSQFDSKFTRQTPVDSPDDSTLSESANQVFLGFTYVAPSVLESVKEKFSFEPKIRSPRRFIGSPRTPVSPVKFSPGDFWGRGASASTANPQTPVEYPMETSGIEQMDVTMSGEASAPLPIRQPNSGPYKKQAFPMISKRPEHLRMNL

[4] = biological target: T2, Histone-arginine methyltransferase CARM1 (Homo sapiens) (UniProt Q86X55); details: MM.1R, at 3 µM
T2 sequence (whole entry): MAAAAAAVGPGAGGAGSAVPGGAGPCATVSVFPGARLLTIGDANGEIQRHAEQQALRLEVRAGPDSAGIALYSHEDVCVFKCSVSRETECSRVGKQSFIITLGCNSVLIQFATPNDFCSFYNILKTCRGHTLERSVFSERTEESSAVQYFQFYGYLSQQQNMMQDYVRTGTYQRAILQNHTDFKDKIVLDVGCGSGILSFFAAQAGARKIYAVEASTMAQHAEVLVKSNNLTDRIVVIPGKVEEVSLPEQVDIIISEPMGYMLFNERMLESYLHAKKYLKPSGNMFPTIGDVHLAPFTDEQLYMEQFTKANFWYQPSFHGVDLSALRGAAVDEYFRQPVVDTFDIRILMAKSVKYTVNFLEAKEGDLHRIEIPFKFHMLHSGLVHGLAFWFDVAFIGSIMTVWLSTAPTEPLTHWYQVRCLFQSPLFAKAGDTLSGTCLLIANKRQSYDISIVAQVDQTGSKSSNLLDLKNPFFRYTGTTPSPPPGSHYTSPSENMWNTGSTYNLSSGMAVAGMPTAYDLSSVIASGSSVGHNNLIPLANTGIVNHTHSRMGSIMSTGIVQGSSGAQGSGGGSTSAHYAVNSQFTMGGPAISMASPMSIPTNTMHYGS

[5] = biological target: T3, Serine/threonine-protein kinase LATS1 (Homo sapiens) (UniProt O95835); assay: Selectivity interaction (ActivX KiNativ screen (kinase selectivity in THP-1 cell lysates)) EUB0000639a LATS1; assay type: subcellular; details: lysate, at 5 µM
T3 sequence (whole entry): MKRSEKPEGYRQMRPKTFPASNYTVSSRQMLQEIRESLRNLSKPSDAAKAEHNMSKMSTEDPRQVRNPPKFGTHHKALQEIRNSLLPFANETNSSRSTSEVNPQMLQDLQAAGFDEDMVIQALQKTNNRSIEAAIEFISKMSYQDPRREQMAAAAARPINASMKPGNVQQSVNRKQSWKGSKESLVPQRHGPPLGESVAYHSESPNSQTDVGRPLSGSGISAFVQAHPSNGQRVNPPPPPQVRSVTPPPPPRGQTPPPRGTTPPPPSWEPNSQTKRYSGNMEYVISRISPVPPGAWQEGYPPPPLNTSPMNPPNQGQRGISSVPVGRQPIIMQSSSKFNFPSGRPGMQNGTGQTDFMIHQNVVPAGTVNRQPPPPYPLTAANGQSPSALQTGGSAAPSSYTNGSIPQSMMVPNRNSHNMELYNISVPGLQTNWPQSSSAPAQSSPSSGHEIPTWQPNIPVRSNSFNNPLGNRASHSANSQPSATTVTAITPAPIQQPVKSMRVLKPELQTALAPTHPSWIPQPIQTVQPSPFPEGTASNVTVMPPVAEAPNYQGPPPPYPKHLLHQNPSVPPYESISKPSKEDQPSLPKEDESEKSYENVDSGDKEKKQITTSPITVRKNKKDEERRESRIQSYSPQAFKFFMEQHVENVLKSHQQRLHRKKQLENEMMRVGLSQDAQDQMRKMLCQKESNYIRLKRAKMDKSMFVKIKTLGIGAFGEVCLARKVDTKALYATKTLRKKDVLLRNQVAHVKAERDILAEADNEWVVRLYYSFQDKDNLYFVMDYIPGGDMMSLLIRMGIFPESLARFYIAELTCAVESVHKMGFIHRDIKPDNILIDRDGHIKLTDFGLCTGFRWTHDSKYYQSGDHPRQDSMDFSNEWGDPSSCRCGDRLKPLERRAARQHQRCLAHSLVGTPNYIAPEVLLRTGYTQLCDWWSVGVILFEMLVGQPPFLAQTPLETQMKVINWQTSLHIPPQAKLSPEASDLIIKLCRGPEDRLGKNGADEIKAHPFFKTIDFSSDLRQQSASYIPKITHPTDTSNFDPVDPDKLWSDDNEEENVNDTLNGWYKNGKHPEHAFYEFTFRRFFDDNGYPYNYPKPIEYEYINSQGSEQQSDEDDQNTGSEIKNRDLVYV

[6] = biological target: Glycogen synthase kinase-3 alpha (Homo sapiens, UniProt P49840); assay: Selectivity interaction (KinomeScan (DiscoverX)) EUB0000229b GSK3A; details: at 10 µM
Sequence of Glycogen synthase kinase-3 alpha (P49840 2-483 limits assumed): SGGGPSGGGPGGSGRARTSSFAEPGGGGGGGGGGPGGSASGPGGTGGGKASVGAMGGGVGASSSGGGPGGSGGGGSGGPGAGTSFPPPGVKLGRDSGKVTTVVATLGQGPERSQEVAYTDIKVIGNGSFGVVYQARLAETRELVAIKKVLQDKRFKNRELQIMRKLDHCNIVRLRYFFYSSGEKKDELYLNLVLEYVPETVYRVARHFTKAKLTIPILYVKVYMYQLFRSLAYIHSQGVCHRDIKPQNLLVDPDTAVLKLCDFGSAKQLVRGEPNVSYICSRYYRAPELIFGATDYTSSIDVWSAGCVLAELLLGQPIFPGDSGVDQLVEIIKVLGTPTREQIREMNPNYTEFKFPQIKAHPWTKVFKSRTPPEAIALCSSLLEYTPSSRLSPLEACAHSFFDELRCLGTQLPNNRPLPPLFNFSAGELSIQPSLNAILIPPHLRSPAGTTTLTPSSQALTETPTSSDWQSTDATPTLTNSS

[7] = biological target: Mitogen-activated protein kinase 14 (Homo sapiens, UniProt Q16539); assay: Selectivity interaction (ProQinase) EUB0000171b MAPK14
Sequence of Mitogen-activated protein kinase 14 (Q16539 whole entry, canonical isoform): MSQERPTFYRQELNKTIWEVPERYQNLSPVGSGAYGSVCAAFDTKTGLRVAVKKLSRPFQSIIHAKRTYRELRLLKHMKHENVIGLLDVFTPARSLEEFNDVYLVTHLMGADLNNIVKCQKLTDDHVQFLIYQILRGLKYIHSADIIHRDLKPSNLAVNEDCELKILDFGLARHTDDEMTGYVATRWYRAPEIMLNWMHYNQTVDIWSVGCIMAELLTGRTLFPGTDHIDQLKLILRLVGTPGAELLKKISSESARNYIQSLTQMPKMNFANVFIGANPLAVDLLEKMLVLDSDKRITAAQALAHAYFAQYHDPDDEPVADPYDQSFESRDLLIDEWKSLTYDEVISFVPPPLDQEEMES

[8] = biological target: Phosphatidylinositol 4,5-bisphosphate 3-kinase catalytic subunit gamma isoform (Homo sapiens) (UniProt P48736); assay: Selectivity interaction (KinomeScan (DiscoverX)) EUB0000695a PIK3CG; details: at 100 nM
Sequence of Phosphatidylinositol 4,5-bisphosphate 3-kinase catalytic subunit gamma isoform (Homo sapiens) (P48736 whole entry, looked up, canonical isoform): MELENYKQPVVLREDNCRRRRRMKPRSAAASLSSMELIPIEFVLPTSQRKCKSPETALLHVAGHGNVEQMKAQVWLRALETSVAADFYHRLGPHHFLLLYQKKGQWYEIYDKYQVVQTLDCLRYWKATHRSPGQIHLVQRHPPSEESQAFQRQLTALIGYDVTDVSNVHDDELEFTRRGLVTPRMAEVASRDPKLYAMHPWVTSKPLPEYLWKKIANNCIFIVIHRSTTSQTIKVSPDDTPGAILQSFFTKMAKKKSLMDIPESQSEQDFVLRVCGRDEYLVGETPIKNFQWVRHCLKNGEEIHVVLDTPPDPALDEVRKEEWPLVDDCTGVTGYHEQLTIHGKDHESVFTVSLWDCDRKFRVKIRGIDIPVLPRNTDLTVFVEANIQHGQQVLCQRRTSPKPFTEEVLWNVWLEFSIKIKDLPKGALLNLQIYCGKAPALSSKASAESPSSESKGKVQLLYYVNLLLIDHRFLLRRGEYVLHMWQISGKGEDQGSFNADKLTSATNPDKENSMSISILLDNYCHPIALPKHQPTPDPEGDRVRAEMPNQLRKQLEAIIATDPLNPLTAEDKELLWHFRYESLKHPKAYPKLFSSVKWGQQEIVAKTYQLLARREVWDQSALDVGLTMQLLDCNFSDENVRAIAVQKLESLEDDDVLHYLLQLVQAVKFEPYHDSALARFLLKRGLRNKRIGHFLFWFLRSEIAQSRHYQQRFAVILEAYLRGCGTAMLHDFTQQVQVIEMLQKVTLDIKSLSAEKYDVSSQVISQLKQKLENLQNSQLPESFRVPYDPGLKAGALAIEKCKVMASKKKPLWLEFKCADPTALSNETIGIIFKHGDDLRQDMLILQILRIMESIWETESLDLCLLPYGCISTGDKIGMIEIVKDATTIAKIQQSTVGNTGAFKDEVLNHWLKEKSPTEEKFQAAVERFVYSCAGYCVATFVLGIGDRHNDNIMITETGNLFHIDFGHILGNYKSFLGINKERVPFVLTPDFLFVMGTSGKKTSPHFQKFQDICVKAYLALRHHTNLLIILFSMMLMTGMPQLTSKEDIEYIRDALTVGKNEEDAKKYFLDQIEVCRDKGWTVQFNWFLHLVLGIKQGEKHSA

Compound: Nc1cnc(N2CCc3cc(S(=O)(=O)Nc4c(F)cc(Cl)cc4F)cc(N4CCCC4=O)c32)nc1 [TP-020n]
- % of control [1]: 100%

Compound: CC(=O)Nc1cccc(-n2c(=O)n(C3CC3)c(=O)c3c(Nc4ccc(I)cc4F)n(C)c(=O)c(C)c32)c1
- % of control [2]: 128%

Compound: CNC(=O)Nc1ccc(-c2nc(N3CC4CCC(C3)O4)c3cnn(C4CCC5(CC4)OCCO5)c3n2)cc1
- % of inhibition [3]: 2%

Compound: CNCCN1CCC(c2cc(CN(C)C(=O)c3cccc(Oc4ccccc4)c3)ccn2)CC1
- % of growth rate [4]: -37.8%

Compound: CC[C@@H]1[C@H](F)C(=O)N[C@@H]1COc1nccc2cc(C(N)=O)c(OC)cc12 [ZIMLOVISERTIB]
- % of inhibition [5]: -31.2%

Compound: COc1cc(N(C)c2ccnc3ccc(C(F)(F)F)cc23)cc(OC)c1OC
- % binding [6]: 93%

Compound: C=CC(=O)Nc1cccc(C(=O)Nc2ccc(Nc3cc(-c4[nH]c(SC)nc4C)ccn3)cc2)c1
- % of control ([7]; at 1 µM): 90%
- % of control ([7]; at 5 µM): 67%

Compound: Cc1cc(F)c(C(=O)Nc2cccc(-c3nncn3C(C)C)n2)cc1-n1cnc(C2CC2)c1
- % of control [8]: 100%
